In PubChem BioAssay AID179 (DTP/NCI, 2004):
“And” between values parts separate entries of the source, which are not always exact repeats. Equal entries are not always repeated. The source made the active and inactive calls.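 The calls were made as follows: active = compounds giving half or more protection of infected cells from virus-caused growth loss, again on retest; inactive = the rest.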

System: CEM cells HIV-1 protection, formazan growth assay
Assay: NCI AIDS Antiviral Assay
Conditions: for IC50: measured here: growth of uninfected CEM cells
Outline: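 Five concentrations of each compound were applied to infected and uninfected human CEM cells. Protection from HIV-1 was judged from growth measured with a soluble formazan assay.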

SMILES | EC50 | IC50 | outcome
Cc1cn([C@H]2C[C@@H]3[C@@H](COC(CCN=[N+]=[N-])N3O)O2)c(=O)[nH]c1=O (stereo partly drawn) | 72.4 µM | > 200 µM | –
NC1(CCNC(=O)c2ccccc2)CCN(C(=O)c2ccccc2)CC1 | > 200 µM | 145 µM | –
C[C@@H]1C[C@@H]2OC(=O)[C@]3(C)[C@H]2[C@@H](OC3(C)O)[C@]2(C)C(=O)C=C[C@@H]12 (stereo partly drawn) | > 316 µM | 5.75 µM | –
Nc1nn2cc3c(nc2c1N=Nc1ccccc1)CCCC3 | > 200 µM | 4.47 µM | –
O=C(O)c1ccccc1SSc1ccccc1C(=O)O | 112 µM and > 589 µM and > 200 µM | 589 µM and > 589 µM and > 200 µM | –
O=C(/C=C/c1ccc2c(c1)OCO2)c1ccc(O)cc1 | > 200 µM | 29.5 µM | –
O=C(CN1CCN(Cc2ccccc2)CC1)N1CCCn2c1nc1ccccc1c2=O | > 200 µM | > 200 µM | –
[O-]c1csc2n(-c3ccccc3)c3ccccc3[n+]12 | > 200 µM | > 200 µM | –
CCOC(=O)c1c2cccccc2n2c(=O)cc(C)nc12 | – | – | inactive
O=C(NNC(=O)c1nsc2ccccc12)c1ccc(Cl)cc1 | > 8.13 µM | > 8.13 µM | –
C=C1C(C)C2C(Cc3ccccc3)NC(=O)C23C(OC(C)=O)C=CC(C)(O)C(=O)C(C)C/C=C/C3C1O (stereo not drawn) | > 20 µM | 0.17 µM | –
CCCCCN(CCCCC)c1ccc(/C=C/c2ccnc3ccccc23)cc1 | > 67.6 µM | > 67.6 µM | –
Cc1cc(Cl)ccc1NC(=O)/C(Cc1nc2ccc(C(=O)c3ccccc3)cc2[nH]c1=O)=N/NC(=O)c1ccncc1 | > 224 µM | 75.9 µM | –
C#CCN(CCC)C(=O)COc1cc2c(O)c3c(O)c(C)c4c(c13)C(=O)C(C)(O/C=C/C(OC)C(C)C(OC(C)=O)C(C)C(O)C(C)C(O)C(C)/C=C/C=C(\C)C(=O)N2)O4 (stereo not drawn) | > 200 µM | 39.8 µM | –
Nc1ccn(C2SC(CO)CC2F)c(=O)n1 (stereo not drawn) | > 25.1 µM | > 25.1 µM | –
NC(N)=NCCCC(Nc1c2ccccc2nc2ccccc12)C(=O)O (stereo not drawn) | – | – | inactive
O=C(O)Cn1c(=O)[nH]c(=O)c2c1ncn2Cc1ccccc1 | > 832 µM | > 832 µM | –

SMILES | EC50 | IC50 | outcome
Cc1ccc(Cc2n[nH]c(=O)n2/N=C\CC/C=N\n2c(Cc3ccc(C)cc3)n[nH]c2=O)cc1 | > 200 µM | 120 µM | –
O=C1N(c2ccccc2)SN2C3C=CC(C4CC43)N12 (stereo not drawn) | > 182 µM | > 182 µM | –
COc1ccc2c(c1)CCN=C2c1ccccc1CCCCl | > 200 µM | 2.34 µM | –
COc1cc([C@@H]2c3cc4c(c(O)c3C[C@H]3COC(=O)[C@@H]32)OCO4)cc(OC)c1O | > 3.24 µM | 0.00174 µM | –
COc1cc2c(cc1OC)C(N(C)C)C(c1ccccc1)=C2Cl (stereo not drawn) | > 55 µM | 33.1 µM | –
Cc1ccc2c(c1)C(=O)N1CSCC1C(=O)S2 (stereo not drawn) | > 251 µM | 32.4 µM | –
Cc1c(COC(=O)NC(C)C)c(COC(=O)NC(C)C)c2n1CS(=O)C2 (stereo not drawn) | > 200 µM | 166 µM | –
CCN(Cc1cccc(S(=O)(=O)[O-])c1)c1ccc(C(=C2C=CC(=[N+](CC)Cc3cccc(S(=O)(=O)O)c3)C=C2)c2ccccc2)cc1 | 148 µM | 186 µM | –
CC1(CO)C(O)CCC2(C)C1CCC1CC3CC12CCC3(O)CO (stereo not drawn) | > 275 µM | 0.398 µM | –
CCCCCC(C/C=N/N(C)C)C(O)(C(F)(F)F)C(F)(F)F (stereo not drawn) | > 200 µM | 14.5 µM | –
CCOP(=O)(OCC)/C(C#N)=C/c1cccc(Br)c1 | – | – | inactive
O=c1cc(-c2ccccc2)oc2cc(O)c(O)c(O)c12 | > 200 µM | 22.4 µM | –
C[C@]12CC[C@H](O)CC1CC[C@@H]1C2CC[C@]2(C)NC(=O)CCC12 (stereo partly drawn) | – | – | inactive
O=CC[C@@]12CC(=O)OC(C1)[C@@H](I)CC21OCCO1 | > 200 µM | > 200 µM | –
COC(=O)C1C(=O)C(C(=O)OC)C2C(C(=O)OC)C(=O)C(C(=O)OC)C12 (stereo not drawn) | 166 µM | 355 µM | –
O=c1oc2ccccc2c(O)c1C(C/C(=N/O)c1ccccc1)c1ccccc1 (stereo not drawn) | > 200 µM | 70.8 µM | –
COc1ccc(C([Se]c2ccccc2)C2C(=O)N(O)CC(=O)N2O)cc1 (stereo not drawn) | – | – | inactive
